Data from the OligoGym collection.
HELM strings list units from the 5' end as sugar, base in round brackets, then linkage (d deoxyribose, r ribose, m 2'-O-methyl, p phosphodiester). Strings are as the collection lists them; they lack the last nucleoside at the 3' end of the tested compound. [moe] = 2'-O-(2-methoxyethyl) (MOE); [sp] = phosphorothioate linkage; [m5C] = 5-methylcytosine

Target: ATXN2
Assay: mouse, dose not given
Conditions: ASO

Substance “RNA1{[moe](A)[sp].[moe](A)p.[moe](G)p.[moe](T)p.[moe](A)p.d(G)[sp].d(T)[sp].d(G)[sp].d(T)[sp].d(T)[sp].d(T)[sp].d(G)[sp].d(G)[sp].d(G)[sp].d(A)[sp].[moe](T)p.[moe](G)p.[moe]([m5C])[sp].[moe](T)}$$$$ (last 3' nucleoside missing)” has a 3 h FOB score of 6 score 0-7.
For “RNA1{[moe](T)[sp].[moe](T)p.[moe](G)p.[moe](T)p.[moe](A)p.d([m5C])[sp].d(T)[sp].d(T)[sp].d([m5C])[sp].d(A)[sp].d([m5C])[sp].d(A)[sp].d(T)[sp].d(T)[sp].d(T)[sp].[moe](G)p.[moe](G)p.[moe](A)[sp].[moe](G)}$$$$ (last 3' nucleoside missing)”, the 3 h FOB score was 3.75 score 0-7.
With “RNA1{[moe](T)[sp].[moe](T)p.[moe](T)p.[moe]([m5C])p.[moe](T)p.d([m5C])[sp].d(A)[sp].d(T)[sp].d(G)[sp].d(T)[sp].d(G)[sp].d([m5C])[sp].d(G)[sp].d(G)[sp].d([m5C])[sp].[moe](A)p.[moe](T)p.[moe]([m5C])[sp].[moe](A)}$$$$ (last 3' nucleoside missing)” the 3 h FOB score was 6 score 0-7.
“RNA1{[moe](G)[sp].[moe](T)p.[moe](T)p.[moe](T)p.[moe](A)p.d(A)[sp].d(T)[sp].d(T)[sp].d(T)[sp].d(G)[sp].d(T)[sp].d(A)[sp].d(A)[sp].d([m5C])[sp].d(T)[sp].[moe](A)p.[moe](G)p.[moe](G)[sp].[moe](T)}$$$$ (last 3' nucleoside missing)” was tested, and the 3 h FOB score was 3.5 score 0-7.
In the case of “RNA1{[moe](G)[sp].[moe](T)p.[moe](G)p.[moe](A)p.d(T)[sp].d(G)[sp].d(T)[sp].d(T)[sp].d(T)[sp].d([m5C])[sp].d(A)[sp].d(T)[sp].d(T)[sp].d(G)[sp].[moe](G)p.[moe](G)p.[moe](T)p.[moe](T)[sp].[moe](T)}$$$$ (last 3' nucleoside missing)”, the 3 h FOB score is reported as 6 score 0-7.
“RNA1{[moe](G)[sp].[moe](A)p.[moe](A)p.[moe]([m5C])p.[moe](T)p.d(G)[sp].d(G)[sp].d(A)[sp].d(T)[sp].d(T)[sp].d([m5C])[sp].d(T)[sp].d(G)[sp].d(T)[sp].d(A)[sp].[moe]([m5C])p.[moe](T)p.[moe](T)[sp].[moe](T)}$$$$ (last 3' nucleoside missing)” was tested, and the 3 h FOB score was 4 score 0-7.
Substance “RNA1{[moe]([m5C])[sp].[moe](A)p.[moe]([m5C])p.[moe](A)[sp].[moe](G)[sp].d(T)[sp].d(T)[sp].d(T)[sp].d([m5C])[sp].d(A)[sp].d([m5C])[sp].d(T)[sp].d(A)[sp].d(G)[sp].d(G)[sp].[moe](T)p.[moe](T)p.[moe]([m5C])[sp].[moe](T)}$$$$ (last 3' nucleoside missing)” has a 3 h FOB score of 4 score 0-7.
“RNA1{[moe](A)[sp].[moe](T)p.[moe](A)p.[moe]([m5C])p.[moe](T)p.d([m5C])[sp].d(T)[sp].d([m5C])[sp].d([m5C])[sp].d(A)[sp].d(T)[sp].d(T)[sp].d(A)[sp].d(T)[sp].d(T)[sp].[moe](T)p.[moe]([m5C])p.[moe](T)[sp].[moe](T)}$$$$ (last 3' nucleoside missing)” gave a 3 h FOB score of 0 score 0-7.
Substance “RNA1{[moe](T)[sp].[moe](A)p.[moe](A)p.[moe]([m5C])p.[moe](T)[sp].d(G)[sp].d(G)[sp].d(T)[sp].d(T)[sp].d(T)[sp].d(G)[sp].d([m5C])[sp].d([m5C])[sp].[moe]([m5C])p.[moe](T)p.[moe](T)[sp].[moe](G)}$$$$ (last 3' nucleoside missing)” has a 3 h FOB score of 6 score 0-7.
“RNA1{[moe]([m5C])[sp].[moe](T)p.[moe]([m5C])p.[moe](T)p.[moe](A)[sp].d(T)[sp].d(T)[sp].d(T)[sp].d([m5C])[sp].d(T)[sp].d(T)[sp].d(T)[sp].d(G)[sp].[moe](T)p.[moe]([m5C])p.[moe]([m5C])[sp].[moe](A)}$$$$ (last 3' nucleoside missing)” gave a 3 h FOB score of 3.5 score 0-7.
“RNA1{[moe](A)[sp].[moe]([m5C])p.[moe](G)p.[moe]([m5C])p.[moe](G)p.d(G)[sp].d(T)[sp].d(G)[sp].d(A)[sp].d(A)[sp].d(T)[sp].d(T)[sp].d([m5C])[sp].d(T)[sp].d(G)[sp].[moe](T)p.[moe]([m5C])p.[moe](T)[sp].[moe]([m5C])}$$$$ (last 3' nucleoside missing)” gave a 3 h FOB score of 1 score 0-7.
“RNA1{[moe](T)[sp].[moe](G)p.[moe](T)p.[moe](T)p.[moe](A)p.d([m5C])[sp].d(T)[sp].d(T)[sp].d(A)[sp].d(T)[sp].d(T)[sp].d(A)[sp].d([m5C])[sp].d([m5C])[sp].d(T)[sp].[moe](T)p.[moe]([m5C])p.[moe]([m5C])[sp].[moe](T)}$$$$ (last 3' nucleoside missing)” was tested, and the 3 h FOB score was 4 score 0-7.
“RNA1{[moe](T)[sp].[moe](T)p.[moe]([m5C])p.[moe](T)p.[moe](G)p.d(T)[sp].d(A)[sp].d([m5C])[sp].d(T)[sp].d(T)[sp].d(T)[sp].d(T)[sp].d([m5C])[sp].d(T)[sp].d([m5C])[sp].[moe](A)p.[moe](T)p.[moe](G)[sp].[moe](T)}$$$$ (last 3' nucleoside missing)” gave a 3 h FOB score of 4.5 score 0-7.
Substance “RNA1{[moe](T)[sp].[moe](A)p.[moe]([m5C])p.[moe](T)p.[moe]([m5C])p.d(T)[sp].d([m5C])[sp].d([m5C])[sp].d(A)[sp].d(T)[sp].d(T)[sp].d(A)[sp].d(T)[sp].d(T)[sp].d(T)[sp].[moe]([m5C])p.[moe](T)p.[moe](T)[sp].[moe]([m5C])}$$$$ (last 3' nucleoside missing)” has a 3 h FOB score of 2.25 score 0-7.
In the case of “RNA1{[moe](A)[sp].[moe]([m5C])p.[moe](T)p.[moe](T)p.[moe](T)p.d(T)[sp].d([m5C])[sp].d(T)[sp].d([m5C])[sp].d(A)[sp].d(T)[sp].d(G)[sp].d(T)[sp].d(G)[sp].d([m5C])[sp].[moe](G)p.[moe](G)p.[moe]([m5C])[sp].[moe](A)}$$$$ (last 3' nucleoside missing)”, the 3 h FOB score is reported as 5 score 0-7.
“RNA1{[moe]([m5C])[sp].[moe]([m5C])p.[moe](A)p.[moe](T)p.[moe](A)p.d([m5C])[sp].d(G)[sp].d([m5C])[sp].d(G)[sp].d(G)[sp].d(T)[sp].d(G)[sp].d(A)[sp].d(A)[sp].d(T)[sp].[moe](T)p.[moe]([m5C])p.[moe](T)[sp].[moe](G)}$$$$ (last 3' nucleoside missing)” showed a 3 h FOB score of 4.5 score 0-7.
In the case of “RNA1{[moe]([m5C])[sp].[moe](A)p.[moe](T)p.[moe](T)p.[moe](T)p.d(T)[sp].d(G)[sp].d(A)[sp].d(A)[sp].d(T)[sp].d(T)[sp].d(A)[sp].d([m5C])[sp].d(A)[sp].d(A)[sp].[moe](T)p.[moe](G)p.[moe]([m5C])[sp].[moe](G)}$$$$ (last 3' nucleoside missing)”, the 3 h FOB score is reported as 1 score 0-7.
Substance “RNA1{[moe](T)[sp].[moe](A)p.[moe](T)p.[moe]([m5C])p.[moe](A)[sp].d(T)[sp].d([m5C])[sp].d(A)[sp].d(T)[sp].d(T)[sp].d(T)[sp].d(T)[sp].d([m5C])[sp].[moe]([m5C])p.[moe](A)p.[moe](G)[sp].[moe](G)}$$$$ (last 3' nucleoside missing)” has a 3 h FOB score of 1.5 score 0-7.
Work on “RNA1{[moe](T)[sp].[moe]([m5C])p.[moe]([m5C])p.[moe](A)p.[moe](A)p.d(G)[sp].d(T)[sp].d(A)[sp].d(A)[sp].d([m5C])[sp].d(A)[sp].d(G)[sp].d(T)[sp].d(G)[sp].d(T)[sp].[moe](A)p.[moe](G)p.[moe](A)[sp].[moe](A)}$$$$ (last 3' nucleoside missing)” yielded a 3 h FOB score of 4 score 0-7.
